Measured values: article PMC3664642, “A Peptide against Soluble Guanylyl Cyclase α1: A New Approach to Treating Prostate Cancer” (PLoS ONE, 2013)
“Also recorded” adds a separate entry of the source. Where no end group is shown, it is not given here.

How the values were obtained:
Assay type in all cases: cell-based
[1] = tested on: CWR-22Rv1 cells; experiment: Proliferation/cytotoxicity, castration-resistant CWR-22Rv1 cells (MTT); settings: different concentrations; Fig. 3C; averages of three independent experiments; P<0.03 vs Vehicle
Protocol: LNCaP, C81, PC-3 and Cos cells were grown as previously described. CWR-22Rv1 cells were cultured in RMPI-1640 medium with 10% FBS and 50 µg/ml Gentamicin (Gibco). Control siRNA, sGCα1 siRNA and AKT siRNA (Dharmacon) at 50 nM final concentration was transfected into cells using Lipofectamine siMAX (Invitrogen).
For proliferation, cells were grown in medium containing 2% FBS extracted with dextran-coated charcoal (DCC). 48 hours later, ethanol or 1 nM R1881 was added to the cells followed by peptide treatment. The MTT assay (Sigma) was used as before to determine cell number. For apoptosis, 5000 cells were seeded in 96-well plates and treated with Vehicle (DMSO), Peptide A-8R (25 µM), Etoposide (50 µM) (Sigma) at different time points. The Caspase (3/7) activity was measured using Apo-ONE Homogeneous Caspase-3/7 assay kit (Promega). PARP cleavage was also used to measure apoptosis, and is described below.
Vehicle or different concentrations of Peptide A-8R or C-8R, as shown, was added to (A) hormone-dependent LNCaP cells grown in 2% serum without or with 1 nM R1881, (C) castration-resistant C81 or CWR-22Rv1 cells, or (E) sGCα1-deficient PC-3 or Cos cells. Cell number was measured after various days of incubation. Data points represent averages of three independent experiments plus standard deviations. […]

[2] = tested on: sGC; experiment: cGMP levels in LNCaP cells (ELISA); settings: 1 nM R1881 absent or present, 20 µM peptide, cGMP EIA kit, Fig. S1B
Protocol: (A) Whole-cell extracts from LNCaP cells treated with Vehicle, Peptide A-8R, or C-8R were subjected to IP using an anti-sGCα1 or anti-sGCβ1 antibody and then probed by Western blotting for sGCα1 (Upper) or sGCβ1 (Lower). Input represents amount of sGCα1 or sGCβ1 found in extracts. (B) LNCaP cells grown in the absence or presence of 1 nM R1881 were treated with Vehicle, 20 µM Peptide A-8R, 20 µM C-8R, or 8-Br-cGMP and monitored for cGMP levels using the cGMP E1A kit (Enzo Life Sciences). (C) LNCaP cells grown in the absence or presence of 8-Br-cGMP were treated with Vehicle, Peptide A-8R, or ODQ and monitored for cell density using the MTT assay. (D) LNCaP cells were treated with Vehicle or different concentrations of Peptide A-8R and C-PTIO and monitored for cell density. Bar graphs represent averages of three independent experiments plus standard deviations. Asterisks indicate statistical significance (P<0.04). (TIF) Click here for additional data file.

[3] = tested on: AKT; experiment: Western blot of AKT in cells; settings: LNCaP, 25 µM, Fig. S4A
Protocol: (§1) Western blotting was performed as described using primary antibodies against sGCα1 (Cayman Chemical), pan-Akt (Cell Signaling Technology), phospho-AKT (S473, T308) (Cell Signaling Technology), phospho-PDK1 (Cell Signaling Technology), phospho-GSK-3β (Cell Signaling Technology), PARP (Cell Signaling Technology), and β-Actin (Abcam).
Supplementary file pone.0064189.s004.tif: Figure S4 Peptide A-mediated down-regulation of AKT is not involved in its cytotoxicity to prostate cancer cells. Western blotting was used to measure the levels of total AKT or Ser-473-phosphorylated AKT in (A) LNCaP cells treated with Vehicle, Peptide A-8R, or Peptide C-8R (25 µM) for different times, as shown, (B) mouse xenograft tumors treated with Vehicle or Peptide A-8R, or (C) LNCaP cells infected with Empty or AKT-expressing adenovirus and treated with Peptide A-8R at different concentration, as shown, for 30 min. Note that β-actin was used to control for protein loading. (D) LNCaP cells, infected with Empty or AKT-expressing adenovirus, were grown in 10% serum under different concentrations of Peptide A-8R, as shown. Cell number was measured after 0–6 days of incubation. Data points represent averages of three independent experiments plus standard deviations. (TIF) Click here for additional data file.

[4] = tested on: ROS generation in LNCaP cells; experiment: ROS generation (CM-H2DCFDA), LNCaP/C81 cells; settings: Fig. 4A
Protocol: Intracellular ROS levels were evaluated using the fluorescent probe 5-(and-6)-chloromethyl-2′,7′-dichlorodihydrofluorescein diacetate (CM-H2DCFDA) (Invitrogen). After treatments with Peptide A-8R, C81 cells were loaded with 20 µM CM-H2DCFDA and incubated at 37°C for 30 min in the dark. Cells were then washed with PBS and fluorescence was measured at the excitation and emission wavelengths of 490 and 535 nm, respectively, using a multi-well fluorescence plate reader. For NAC (N-acetyl cysteine) (Sigma) rescue experiment, cells were pretreated with 1 or 5 mM NAC for 2 hours before adding Peptide A-8R.
Figure 4 Peptide A-8R kills prostate cancer cells by mediating ROS generation. (A) C81 cells were treated with Vehicle or different µMolar concentrations of Peptide A-8R and without or with 0–5 mM NAC and monitored for ROS generation after 0–30 min as measured by fluorescence intensity (FI). Bar graphs represent averages of three independent experiments plus standard deviations. Note that asterisks on bar graphs found with NAC are compared to equivalent data without NAC. (B) C81 cells were treated with Vehicle or different concentrations of Peptide A-8R, as shown, and 0–5 mM NAC, as shown, and monitored for cell number after 0–6 days of incubation as measured by MTT assay. Data points represent averages of three independent experiments plus standard deviations. Asterisks indicate statistical significance (P<0.04). (C) C81 cells were treated with Vehicle or different concentrations of Peptide A-8R, as shown, and with or without 5 mM NAC, as shown, and monitored DNA damage after 1 hr incubation as measured by Comet assay.

[5] = tested on: p15, p21, CDK6; experiment: Expression of cell-cycle regulatory proteins (Western blot), C81 cells; settings: 25 µM, Fig. S7
Protocol: as §1
Supplementary file pone.0064189.s007.tif: Figure S7 Peptide A-8R induces expression of p15 and p21 in prostate cancer cells. C81 cells treated with 25 µM Peptide A-8R or Peptide C-8R for different times, as shown, monitored for expression of p15, p21, and CDK6 by Western blotting (antibodies from Cell Signaling Technology). Note that β-actin was used to control for protein loading. (TIF) Click here for additional data file.

[6] = tested on: p53; experiment: p53 activity and dependence; settings: prostate cancer cells; data not shown

Which “suppression of growth of CWR-22Rv1 cells” value [1] does the source give for Ac-TFCKAFPFHIIRRRRRRRR [Peptide A-8R] here?
The value was “also effective on another hormone-refractory prostate cancer cell line, CWR-22Rv1 cells”.

What about the cGMP levels [2] of the same substance?
Its cGMP levels is “unable to significantly repress cGMP levels, in either the absence or presence of androgen; also recorded: does not interfere with sGCα1-sGCβ1 dimerization and androgen-induced cGMP synthesis”.

What about the “effect on phosphorylated AKT level” value ([3]; Ser-473) of the same substance?
Its value is “similarly affected”.

What about the “effect on total AKT protein level” value ([3]; time course, 50 min) of the same substance?
The value was “strong, time-dependent negative effect on the AKT protein, such that by 50 min most of the measurable AKT is gone; also recorded: significantly reduces AKT protein levels”.

And the ROS induction ([4]; 0–30 min, fluorescence 490/535 nm, S5B, averages of three independent experiments)?
The ROS induction was “significant ROS induction in LNCaP cells within 30 minutes”.

What about the “ROS generation at 50 µM” value ([4]; 50 µM) of the same substance?
The value was “decreased with 50 µM; also recorded: minimal ROS induction; also recorded: lowest induction of ROS”.

And the “ROS generation, concentration dependence” value ([4]; 10 to 25 µM)?
The value was “rose when Peptide A-8R concentration was increased from 10 to 25 µM”.

What about the “expression of CDK6” value [5] of the same substance?
Its value is “unchanged”.

And the “expression of p15 and p21” value [5]?
The value was “expression increased”.

And the “effect on p53 activity and p53 dependence of apoptosis” value [6]?
Its value is “does not disrupt p53 activity nor depend on endogenous p53 for inducing apoptosis”.
